Experimental data published in patent US9351494B2, “Honeybee repellents and uses thereof” (Inscent, Inc., priority 2013, dated 2016).

Columns and labels:
[1] = tested on: Apis mellifera Carniolan foraging worker honeybees; assay: proboscis extension response (PER) assay with bees conditioned to 2-heptanone; type: in vivo; conditions: for 2-heptanone positive bees testing positive to compound: PER, compound 0.5% on filter paper, 4 seconds exposure, only bees giving a PER with 2-heptanone but not with negative controls counted
Experimental: To determine whether a living honeybee can recognize a candidate compound, these compounds were tested using a proboscis extension response (PER) assay using classical conditioning approaches. Proboscis extension response conditioning is a case of appetitive learning, in which bees learn to associate odor stimuli with sucrose reward in the laboratory. In this case, bees were conditioned to produce a PER to 2-heptanone as the conditioned stimulus and a sugar reward as the unconditioned stimulus. These trained bees were then exposed to an odor pulse of a candidate compound to test whether a candidate compound would also produce a PER. If the candidate compound “mimics” 2-heptanone then the honeybee will extend its proboscis. For conditioning procedures, Apis mellifera Carniolan foraging worker honeybees were obtained from a local apiary (typically 60 bees per shipment). The honeybees were held overnight in insect cages with food and water freely available, in an environmentally controlled room on a light cycle similar to the ambient cycle at the time of the assay. For conditioning procedures, all tests were done in an odorant delivery apparatus set inside a fume hood. The apparatus comprised a set of open-ended, horizontal, 3 cm diameter by 10 cm long plastic tubes. Each tube was designed where a honeybee could be positioned at the distal end of a tube, with the opening at the other end of the tube located proximal to an inlet of the fume hood. To deliver an odorant, room air was pumped by a diaphragm pump through a particle filter via 0.25 inch plastic tubing at approximately 0.7 m/sec. The air flow passes into the headspace above an odorant (0.5% [v/v]2-heptanone dissolved in odorless light paraffin oil) contained in a 100 mL bottle. The headspace air then passes through another plastic tube to a manifold of 4-way valves, each of which was attached near the proximal end of a plastic tube containing a bee. Each bee was exposed separately for a desired time period to the odorant by opening and closing the appropriate valve. When each valve was closed, the odor was flushed away immediately by the continuous fume hood air stream. To train a honeybee to respond to a conditioned and unconditioned stimuli, bees were placed, without anesthesia, in individual 1.5 mL micro-centrifuge holding tubes and held overnight without access to food or water. The holding tubes containing the starved bees were placed in racks in groups of eight. One rack at a time was placed behind the odorant delivery apparatus so that each bee's head is centered at the distal end of a horizontal plastic tube. Each bee was exposed to the 2-heptanone odorant alone for four seconds, and then while being fed an 80% sucrose solution for and additional three seconds. The sucrose solution was delivered on a piece of saturated filter paper held in forceps. […] Positive and negative responses were recorded. A positive PER was scored when a bee extended its proboscis before the sucrose appeared. In a typical trial, 48 individual bees were subjected to conditioning. Six rounds of training were done before testing began, and typically a majority of the bees were successfully conditioned by the second or third round of training. After conditioning, honeybees were tested with the candidate compounds the same day or on the following day or, most commonly, both. When held overnight, bees were fed with sucrose and kept in their holding tubes. When tested the day after training, bees were given one or more rounds of conditioning with 2-heptatone to refresh their memories. Candidate compounds stocks were made at 5% (w/v) in polyoxyethylene octyl phenyl ether (TRITON® X-100), a non-ionic detergent/surfactant, and stored at 4° C. This detergent is similar to substances used as carriers for a variety of commercial pest-control agents, can act as a solvent for both hydrophilic and hydrophobic substances, and is itself nearly odorless. […]

[2] = cited from earlier work
[3] = tested on: OBP2; assay: fluorescent-quench, ligand-protein-binding assay (OBP2 binding); parameters: species or system Apis mellifera
Excerpt: To identify a honeybee repellent disclosed herein, candidate compounds were screened based upon the fact that 2-heptanone is an established repellent of bees. 2-heptanone is thought to mediate its behavioral response through binding to a specific odorant-binding protein called OBP2. Therefore compounds that bind OBP2 have the potential to act as odor “mimics” of 2-heptanone. By utilizing a fluorescent-quench, ligand-protein-binding assay, 30,000 compounds from the […]® library (ChemBridge Corp., San Diego, Calif.), a chemical library, were screened and over 150 candidate compounds were isolated that bind OBP2 (Table 1). Such assays are generally known in the art. See, e.g., Briand, et al., Ligand-Binding Properties and Structural Characterization of a Novel Rat Odorant-Binding Protein Variant, Eur. J. Biochem. 267(10): 3079-3089 (2000); Briand, et al., Ligand Binding and Physico-Chemical Properties of ASP2, A Recombinant Odorant-Binding Protein From Honeybee (Apis mellifera L.), Eur. J. Biochem. 268(3): 752-760 (2001); Briand, et al., Characterization of a Chemosensory Protein (ASP3c) from Honeybee (Apis mellifera L.) as a Brood Pheromone Carrier, Eur. J. Biochem. 269(18): 4586-4596 (2002), each of which is hereby incorporated by reference in its entirety.

[4] = tested on: Apis mellifera Carniolan foraging worker honeybees; assay: choice test in a free-flight box apparatus; type: in vivo; conditions: for Z-score: Z-test (alpha=10%) versus control likelihood 47.5%, critical Z-score 1.282, positive value attractant, negative repellant; for nP (number of tests a honeybee returned to a preferred test dish): candidate compound 0.05-0.5% on filter paper below honey dish, out of n total tests; for P (probability that a honeybee will return to a test dish, nP/n): compared to control likelihood of 47.5% without compound
Excerpt: To determine whether living honeybees will choice to move towards a source of a candidate compound, these compounds will be assayed using a choice test in a free-flight box apparatus.
All tests will be done in a free-flight box apparatus. The apparatus comprises a 244 cm long×46 cm deep×30 cm high clear plastic box including two equally-sized independent testing chambers, each with 10 cm diameter air inlets that admit filtered room air, separated by a smaller central chamber with a screened air outlet to each testing chamber. Air can be pulled through the sealed box via a 10 cm diameter duct from the air outlet using an AQE Fume Fighter 500 fume extractor (BPA Air Quality Solutions, LLC, Charleston, S.C.), which removes the test odors using activated charcoal and HEPA filters. The box is housed in an environmentally controlled room with overhead illumination timed to correspond to the current ambient light cycle including 2 additional sets of lights timed to approximate crepuscular lighting conditions. The bottom of the apparatus will be lined with clean absorbent paper marked with a 4×9 grid pattern, forming 12 cm×12 cm squares with marked coordinates.
Apis mellifera Carniolan foraging worker honeybees will be obtained from a local apiary (typically 60 bees per shipment). Thirty honeybees will be put into each testing chamber and will be allowed to acclimate for 24 hours with food and water freely available. At the beginning of each test day all food will be removed from the test chamber, but water will be continually available throughout all tests. For each test, approximately 0.3 g of organic, raw orange blossom honey will be added to each clean small plastic weigh boat (Cole-Palmer). The honey boats will be placed in small plastic culture dishes, which will be distributed in the marked squares in the chambers. The positions of the dishes on the grid for a set of trials was chosen to avoid bees' preferred resting area so that they will have to find the food actively, but the same dish positions will be maintained for a given set of trials. We will use seven dishes of honey: six to which the bees will have access and a seventh that will have a screened lid. The honey in each boat was weighed on an analytical balance before and after the test, with the screened sample as a control for evaporative loss. The fume extractor was left off during the experimental trails, and was turned on to clear the air after the test dishes were covered and removed from the chamber at the end of each trial.
Based on the observation that bees tend to return to dishes in the same position where they have fed before, each set of trials with each group of bees began with “Pattern Identification” tests to see which dishes lose the most weight, reflecting the most feeding. Once bees are consuming an acceptable amount in 10-15 min, typically in 1-2 trials, a set of test compound trials will begin. The test compound will be pipetted onto pieces of filter paper placed on the dish bottom below the boat containing a fresh, weighed honey sample so that the test compound will be inaccessible to the bees. We used 2 μL of a candidate compound at a concentration of 0.05-0.5%, in Triton X-100 or paraffin oil, on each of four pieces of filter paper per dish. The test-solution dishes will be set at the same positions as the one or two dishes favored in the preceding Pattern Identification trial. To eliminate interference from the solvent, the other dishes without the test substance will contain the same volume of the appropriate solvent on filter papers as the test solution dishes. The bees will be allowed to feed for 10-15 minutes. Bee movements will be recorded by a small, wide-angle digital video camcorder (HD Hero 960; GoPro, Halfmoon Bay, Calif.) placed on a tripod in front of the test chamber. […]

## CCCCCC(C)=O [2-heptanone, 2-Heptanone]
[1]; 0.5% 2-heptanone in paraffin oil
  total bees subjected to conditioning that exhibited a PER with the 2-heptanone positive control: about half
[2]; alcohol or ether
  solubility in alcohol or ether: soluble
[2]; water
  solubility in water: very slightly soluble

## O=C(NC(=S)N1CCCc2ccccc21)c1ccccc1 [Candidate Compound 62, N-(3,4-dihydro-1(2H)-quinolinylcarbonothioyl)benzamide]
[3]
  OBP2 binding characteristic of compound: Moderate (Moderate, indicates that 50% or less of the compound bound to OBP2.)
[1]
  2-heptanone positive bees testing positive to compound: 23.6%

## COc1ccc(C2SCC(=O)N2CCc2ccccc2)cc1 (centres unmarked) [Candidate Compound 63, 2-(4-methoxyphenyl)-3-(2-phenylethyl)-1,3-thiazolidin-4-one]
[4]
  Z-score: 0.394
  nP (number of tests a honeybee returned to a preferred test dish): 32
  P (probability that a honeybee will return to a test dish, nP/n): 0.5
[3]
  OBP2 binding characteristic of compound: Moderate (Moderate, indicates that 50% or less of the compound bound to OBP2.)
[1]
  2-heptanone positive bees testing positive to compound: 21.4%

## CCOc1cc(C)nc(-c2ccccc2O)n1 [Candidate Compound 64, 2-(4-ethoxy-6-methyl-2-pyrimidinyl)phenol]
[4]
  Z-score: −3.043
  nP (number of tests a honeybee returned to a preferred test dish): 16
  P (probability that a honeybee will return to a test dish, nP/n): 0.276
[3]
  OBP2 binding characteristic of compound: Moderate (Moderate, indicates that 50% or less of the compound bound to OBP2.)
[1]
  2-heptanone positive bees testing positive to compound: 21.7%

## COc1ccc(CCC(C)NN2CCOCC2)cc1 (centres unmarked) [Candidate Compound 65, N-[3-(4-methoxyphenyl)-1-methylpropyl]-4-morpholinamine]
[3]
  OBP2 binding characteristic of compound: Moderate (Moderate, indicates that 50% or less of the compound bound to OBP2.)
[1]
  2-heptanone positive bees testing positive to compound: 7.6%

## CCOC(=O)c1c(NC(=O)C(C)(C)C)sc2c1CCCC2 [Candidate Compound 69, ethyl 2-[(2,2-dimethylpropanoyl)amino]-4,5,6,7-tetrahydro-1-benzothiophene-3-carboxylate]
[3]
  OBP2 binding characteristic of compound: Moderate (Moderate, indicates that 50% or less of the compound bound to OBP2.)
[1]
  2-heptanone positive bees testing positive to compound: 6.5%

## Nc1c(C(=O)c2ccccc2)sc2nc(-c3ccccc3)ccc12 [Candidate Compound 76, (3-amino-6-phenylthieno[2,3-b]pyridin-2-yl)(phenyl)methanone]
[3]
  OBP2 binding characteristic of compound: Moderate (Moderate, indicates that 50% or less of the compound bound to OBP2.)
[1]
  2-heptanone positive bees testing positive to compound: 11.9%

## C=CCOc1cc(C)nc(-c2ccccc2O)n1 [Candidate Compound 104, 2-[4-(allyloxy)-6-methyl-2-pyrimidinyl]phenol]
[3]
  OBP2 binding characteristic of compound: Moderate (Moderate, indicates that 50% or less of the compound bound to OBP2.)
[1]
  2-heptanone positive bees testing positive to compound: 27.9%
